Publication PMC7367283, “A PIP2 substitute mediates voltage sensor-pore coupling in KCNQ activation” (Communications Biology, 2020)

Columns and labels:
Assay type in all cases: cell-based
IKs (KCNQ1 + KCNE1) = IKs (KCNQ1 + KCNE1) (Homo sapiens, UniProt P51787); assay: IKs co-expressed with CiVSP (PIP2 depletion), two-electrode voltage clamp in Xenopus oocytes
Text: (§1) We co-expressed KCNQ1 with the voltage-dependent lipid phosphatase CiVSP[44] in Xenopus oocytes and recorded KCNQ1 currents using two-electrode voltage clamp with consecutive depolarizing voltage pulses. […] To more directly test CP1 effects, we applied CP1 to the intracellular side of the inside-out membrane patch that expressed IKs channels.

KCNQ1 = KCNQ1 (Homo sapiens, UniProt P51787); assay: KCNQ1 co-expressed with CiVSP (PIP2 depletion), two-electrode voltage clamp in Xenopus oocytes; conditions: ~10 µM CP1 injected into the oocyte; pulses to +60 mV
Text: as §1

Kir1.1 = biological target: T1, Kir1.1 (Homo sapiens, UniProt P48048); assay: Two-electrode voltage clamp of Kir1.1 in Xenopus oocytes; conditions: 10 µM CP1; for Current (Fig. 6b): mean
T1 sequence (P48048 1-391): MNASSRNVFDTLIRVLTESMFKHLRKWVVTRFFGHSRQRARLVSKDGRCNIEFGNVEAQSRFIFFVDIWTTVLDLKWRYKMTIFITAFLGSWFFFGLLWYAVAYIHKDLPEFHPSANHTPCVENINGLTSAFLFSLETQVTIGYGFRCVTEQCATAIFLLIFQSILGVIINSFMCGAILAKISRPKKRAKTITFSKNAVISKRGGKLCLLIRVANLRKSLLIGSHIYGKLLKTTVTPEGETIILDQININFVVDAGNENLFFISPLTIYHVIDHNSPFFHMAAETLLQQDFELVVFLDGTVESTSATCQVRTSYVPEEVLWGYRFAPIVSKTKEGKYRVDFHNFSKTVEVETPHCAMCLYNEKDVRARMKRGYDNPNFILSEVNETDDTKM
Text: Since CP1 has a similar effect to PIP2 in mediating VSD-pore coupling in KCNQ channels, we tested if CP1 has effects on other ion channels that are also sensitive to PIP2 or are voltage activated and share general structural features of the VSD and the pore with KCNQ. […] On the other hand, NaV1.5 and KV4.2 are voltage-gated ion channels.
Fig. 6 Effects of CP1 on other ion channels expressed in Xenopus oocytes. a Currents of Kir1.1, CaV1.2, NaV1.5, hERG, and KV4.2 before and after application of 10 µM CP1, respectively. The voltages for holding, test, and returning pulses were Kir1.1, 0 mV, −100 to +60 mV, 0; CaV1.2, −100 mV, −100 to +60, −100 mV; NaV1.5, −100, −120 to +40 mV, −120 mV; hERG, −80 mV, −90 to +60 mV, −60 mV; KV4.2, −80 mV, −100 mV to +80 mV, −40 mV; HCN4, −30 mV, −30 to −140 mV, −120 mV. b Current–voltage relations of Kir1.1 channel in the absence or presence of 10 µM CP1 (n = 7). c–g G–V relations of indicated channels with and without 10 µM CP1. The ΔV1/2 of G–V relations (mV) are CaV1.2, 3.38 ± 0.71 mV (c); NaV1.5, −2.26 ± 0.95 mV (d); hERG, 6.85 ± 1.81 mV (e); KV 4.2, −2.26 ± 2.88 mV (f); HCN4, 17.13 ± 1.59 mV (g).
Complementary DNA (cDNA) encoding human KCNQ1 (UniProtKB/Swiss‐Prot under accession no. P51787), KCNQ2 (O43526), KCNQ3 (O43525), KCNE1 (P15382), Kir1.1 (P48048), hERG (Q12809), KV4.2 (Q63881), NaV1.5 (Q14524), NaV β1 (Q07699), CaV1.2 (Q13936), CaV β1a (Q02641), CaV α2/δ1 (P54289), and HCN4 (Q9Y3Q4) were subcloned into oocyte expression vectors, respectively. Site-directed mutations of the KCNQ1 channel were all produced by overlap extension polymerase chain reaction (PCR) with high-fidelity Pfu polymerase (Stratagene, CA). The presence of the desired mutation was verified by sequencing the PCR-amplified regions. All the primer sequences used in this study are available in Supplementary Table 1. The complementary RNA (cRNA) of all these channels and mutations was transcribed in vitro with the T3, T7, or SP6 polymerase mMessage mMachine kit (Invitrogen, Thermo Fisher Scientific, MO).
The whole-oocyte ionic currents were recorded with a GeneClamp 500B amplifier (Axon Instruments, CA) or iTEV90 amplifier (HEKA, Germany) and then sampled at 1 kHz and low-pass-filtered at 2 kHz. The Patchmaster software (HEKA, Germany) was used to acquire data. The Kir1.1 current was recorded with a high K^+ bath solution containing (in mM) 96 KCl, 4 NaCl, 1 CaCl2, 2 MgCl2, and 10 HEPES, pH 7.3–7.4. The HCN4 current was recorded in ND66 solution containing (in mM) 66 NaCl, 32 KCl, 1.8 CaCl2, 1 MgCl2, and 5 HEPES, pH 7.6. All the other potassium channels were recorded in ND96 solution. The currents of CaV1.2 channel were recorded in 40 mM Ba^2+ bath solution containing (in mM) 40 Ba(OH)2, 50 TEA-OH, 2 KOH, and 5 HEPES, adjusted to pH 7.4 with methanesulfonic acid. CP1 (DISODIUM 5-BROMO-2-[9-CHLORO-3-(SULFONATOOXY) NAPHTHO [1,2-B] THIEN-2-YL]-1H-INDOL-3-YL SULFATE, Sigma-Aldrich, MO) and Chromanol 293B (Sigma-Aldrich, MO) were dissolved in bath solutions. All the chemicals were purchased from Sigma-Aldrich. To measure the I–V relations of the Kir1.1 channel, the test voltage was set from −100 to +60 mV for 1 s with 20-mV increments. The test pulses were stepped from a holding potential of 0 mV and then stepped back to 0 mV. The HCN4 currents were recorded by a test pulse between −30 and −140 mV in 10-mV step from a holding potential of −30 mV. For all the other potassium channels and CaV1.2 channel, the holding potential was −80 or −100 mV, and the test pulse was applied with 10-mV increment, which was followed with a repolarization pulse at −40 mV before returning to the holding potential. The durations of test and the repolarization pulse vary for different channels to allow the activation and deactivation of the channel to reach their steady states.

IKs currents after PIP2 depletion (IKs (KCNQ1 + KCNE1); 10 µM CP1, extracellular perfusion, pulses to +60 mV): rescued IKs currents
membrane permeability (IKs (KCNQ1 + KCNE1); inferred from rescue by extracellular perfusion): membrane permeable
effect on currents of Kir1.1 (Kir1.1): little effect
Current (Fig. 6b) (Kir1.1; voltage 0 mV): -0.8738 µA
Current (Fig. 6b) (Kir1.1; voltage 20 mV): 8.1285 µA
Current (Fig. 6b) (Kir1.1; voltage 40 mV): 17.0203 µA
Current (Fig. 6b) (Kir1.1; voltage 60 mV): 25.9074 µA
Current (Fig. 6b) (Kir1.1; voltage -20 mV): -9.7186 µA
Current (Fig. 6b) (Kir1.1; voltage -40 mV): -18.5616 µA
Current (Fig. 6b) (Kir1.1; voltage -60 mV): -27.3089 µA
Current (Fig. 6b) (Kir1.1; voltage -80 mV): -36.1588 µA
Current (Fig. 6b) (Kir1.1; voltage -100 mV): -44.9245 µA
SMILES: O=S(=O)([O-])Oc1c(-c2sc3c(ccc4cccc(Cl)c43)c2OS(=O)(=O)[O-])[nH]c2ccc(Br)cc12.[Na+].[Na+] [CP1, DISODIUM 5-BROMO-2-[9-CHLORO-3-(SULFONATOOXY) NAPHTHO [1,2-B] THIEN-2-YL]-1H-INDOL-3-YL SULFATE]
KCNQ1 currents after PIP2 depletion (KCNQ1): currents increased with consecutive voltage pulses
